Data as given in PubChem BioAssay (NCI).
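Test compounds were applied to cells in 96-well plates for 48 hours at 5 doses. GI50: concentration for 50% inhibition of growth. TGI: total growth inhibition.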

How the values were obtained:
Test in all cases: NCI anticancer screen, dose series, 48 h
786-0 renal = tested on: 786-0 renal
ACHN renal = tested on: ACHN renal
EKVX NSCLC = tested on: EKVX NSCLC
HL-60(TB) leukemia = tested on: HL-60(TB) leukemia
K-562 leukemia = tested on: K-562 leukemia
LOX IMVI melanoma = tested on: LOX IMVI melanoma
MALME-3M melanoma = tested on: MALME-3M melanoma
SF-268 CNS = tested on: SF-268 CNS
SF-295 CNS = tested on: SF-295 CNS
SW-620 colon = tested on: SW-620 colon

Row | SMILES | TGI (786-0 renal) [µM] | TGI (ACHN renal) [µM] | TGI (EKVX NSCLC) [µM] | TGI (HL-60(TB) leukemia) [µM] | TGI (K-562 leukemia) [µM] | TGI (LOX IMVI melanoma) [µM] | TGI (MALME-3M melanoma) [µM] | TGI (SF-268 CNS) [µM] | TGI (SF-295 CNS) [µM] | TGI (SW-620 colon) [µM] | GI50 (786-0 renal) [µM] | GI50 (ACHN renal) [µM] | GI50 (EKVX NSCLC) [µM] | GI50 (HL-60(TB) leukemia) [µM] | GI50 (K-562 leukemia) [µM] | GI50 (LOX IMVI melanoma) [µM] | GI50 (MALME-3M melanoma) [µM] | GI50 (SF-268 CNS) [µM] | GI50 (SF-295 CNS) [µM] | GI50 (SW-620 colon) [µM]
1 | CC[N+](C)(CC)CC(C)(C)C(=O)/C=C/c1ccc(/C=C/C(=O)C(C)(C)C[N+](C)(CC)CC)cc1 | > 100 | > 100 | > 100 | > 100 | > 100 | > 100 | > 100 | > 100 | > 100 | > 100 |  |  |  |  |  |  |  |  |  | 
2 | Cc1cccc(NC(=O)/C=C/c2ccc([N+](=O)[O-])cc2)c1 | > 51.2 | 28.8 | > 56.5 | > 24.8 | > 100 | > 53 | 66.9 | > 76.8 | > 58 | > 60.2 |  |  |  |  |  |  |  |  |  | 
3 | COc1ccc(C(CC(=O)c2ccccc2)C(C(=O)c2ccccc2)C(c2ccc(OC)cc2)C2C(=O)NC(=S)NC2=O)cc1 (stereo unspecified) | > 100 | 50.9 | 57.2 | > 100 | > 100 | 20.6 | 58.4 | 55.5 | 42.7 | 39.9 | 21.7 | 12.3 | 2.44 | 20.1 | 24.8 | 8.18 | 19.8 | 9.99 | 11.4 | 14.3
4 | COc1ccccc1NS(=O)(=O)c1ccc2oc(SC(C)C)nc2c1 | > 100 | > 100 | 78.7 | 29.1 | > 100 | 46.4 | 37.5 | > 100 | 37 | > 100 | 26.6 | 21 | 6.4 | 6.09 | 3.73 | 12.7 | 12.9 | 29.5 | 11.1 | 31.6
5 | O=C(CCc1nnc2s/c(=C\c3ccccc3Cl)c(=O)n12)Nc1cc(Cl)ccc1Cl | > 100 | > 100 | > 100 | > 100 | > 100 | > 100 | > 100 | > 100 | > 100 | > 100 |  |  |  |  |  |  |  |  |  | 
6 | Cc1ccc(-c2nc([P+](c3ccccc3)(c3ccccc3)c3ccccc3)c(Nc3ccccc3)o2)cc1 | 2.57 | 2.22 | 2.18 | 1.3 | 1.27 | 1.76 | 0.801 | 2.53 | 2.41 | 1.66 | 1.18 | 1.04 | 0.815 | 0.395 | 0.326 | 0.457 | 0.25 | 1.15 | 1.14 | 0.446
7 | C[C@]12CCNC(=O)C=C1CC[C@@H]1C2CC[C@@]2(C)C1CC[C@@H]2OC(=O)COc1ccc(N(CCCl)CCCl)cc1 (stereo partly specified) | 3.19 | 11.2 | 40.3 | 7.4 | 46.3 | 22.8 | 24.6 | 23.8 | 30.6 | 16.5 |  |  |  |  |  |  |  |  |  | 
8 | CC12CCC3c4cc(Br)c(O)c(Br)c4CCC3C1CCC2O (stereo unspecified) | 42 | 73.7 | 45.4 | 66.6 | 64.6 | 63.6 | 30.8 | 49.6 | 33.4 | 33 |  |  |  |  |  |  |  |  |  | 
9 | CCOC(=O)c1ccc2c(c1)[n+](=O)c(C(C)=O)c(C(F)(F)F)n2[O-] | 3.21 | 3.01 | 3.96 | 3.08 | 2.52 | 3.12 | 2.83 | 2.93 | 3.01 | 3.26 | 1.67 | 1.59 | 1.82 | 1.44 | 1.16 | 1.47 | 1.4 | 1.49 | 1.37 | 1.52
10 | CN(C)CCNC(=O)c1cccc2ccc(-c3ccc(-c4ccccc4)cc3)nc12 | 3.39 | 12.8 | 24.6 | 4.23 | 5.64 | 3.09 | 3.61 | 10.4 | 4.03 | 4.74 |  |  |  |  |  |  |  |  |  | 
11 | O=C(CC(=O)c1cccc(Cl)c1)c1cccc(Cl)c1 | > 100 | > 100 | > 100 | > 100 | > 100 | > 100 | > 100 | > 100 | > 100 | > 100 | 3.86 | 2.71 | 2.16 | 1.99 | 1.12 | 1.37 | 2.75 | 2.76 | 1.01 | 2.14
12 | Nc1nc(N)c2cc(Sc3cccc(C(F)(F)F)c3)ccc2n1 | 5.38 | 14.7 | 19.8 | 3.24 | 1.92 | 1.82 | 2.91 | 19 | 8.97 | 1.57 |  |  |  |  |  | 0.307 |  |  |  | 0.267
13 | Cc1cc(=O)[nH]c(CNC(=O)c2cccc(C(=O)NCc3cc(=O)[nH]c(C)n3)c2)n1 | > 100 | > 100 | > 100 | > 100 | > 100 | > 100 | > 100 | > 100 | > 100 | > 100 |  |  |  |  |  |  |  |  |  | 
14 | Cc1cn(-c2ccc(S(C)(=O)=O)cc2)c(-c2ccc(Cl)cc2)n1 | > 100 | > 100 | > 100 | > 100 | > 100 | > 100 | > 100 | > 100 | > 100 | > 100 | > 100 | > 100 | > 100 | > 100 | > 100 | > 100 | > 100 | > 100 | > 100 | > 100
15 | CC1=C(C)C2(O)C(=C(C)C1=O)/C(=C(/O)c1ccccc1)c1nc3ccccc3n12 (stereo unspecified) | 83.9 | 34.4 | 60.4 | 56.7 | 52 | 34.6 | 43.9 | > 100 | 33.2 | > 100 | 29.5 | 16.4 | 24.5 | 18.3 | 24.5 | 16.7 | 19.1 | 35.7 | 15.5 | 29.4
16 | CN(/N=C/c1cccc2cccnc12)c1c([N+](=O)[O-])cc([N+](=O)[O-])cc1[N+](=O)[O-] | > 100 | > 100 | > 100 | > 100 | > 100 | > 100 | > 100 | > 100 | > 100 | > 100 |  |  |  |  |  |  |  |  |  | 
17 | Nc1nc(=O)n([C@@H]2CS[C@H](CO)O2)cc1F | > 100 | > 100 | > 100 | > 100 | > 100 | > 100 | > 100 | > 100 | > 100 | > 100 | > 100 | > 100 | > 100 | > 100 | > 100 | > 100 | > 100 | > 100 | > 100 | > 100
18 | CN(C)c1ccc(C(c2ccc(Cl)cc2)c2ccc(N(C)C)cc2)cc1 | > 100 | > 100 | > 100 | > 100 | > 100 | > 100 | > 100 | > 100 | > 100 | > 100 |  |  |  |  |  |  |  |  |  | 
19 | CCn1c2c(c3ccccc31)C(c1ccccc1)CC1C(=O)N(c3ccccc3)C(=O)C21 (stereo unspecified) | > 100 | > 100 | > 100 | > 100 | > 100 | > 100 | 52.4 | > 100 | > 100 | > 100 |  |  |  |  |  |  |  |  |  | 
20 | Cc1ccc(-c2nc(-c3cn(C)c4ncccc34)cs2)cc1 | 19.8 | 29.2 | 43.7 | 26.2 | > 34.5 | 18.1 | 26.5 | 39.2 | 11.1 | 8.91 | 6.09 | 7.65 | 4.61 | 2.54 | 1.91 | 5.06 | 4.85 | 7.83 | 2.3 | 1.95
21 | CCOC(=O)c1cnn2c3ccccc3n(S(=O)(=O)c3ccc(OC)cc3)c12 | > 100 | > 100 | > 100 | 0.695 | > 100 | > 61 | > 100 | > 100 |  | > 100 | 0.666 | 0.811 | 0.583 | 0.226 | 0.0553 | 0.496 | 0.598 | 2.33 | 0.255 | 0.269
22 | CCN1C[C@]2(COC)[C@H](O)C[C@H](OC)[C@]34C1[C@H]([C@H](OC)[C@H]23)[C@]1(OC(C)=O)[C@H]2[C@@H](OC(=O)c3ccccc3)[C@](O)(C[C@H]24)[C@@H](OC)[C@@H]1O | > 100 | > 100 | > 100 | > 100 | > 100 | > 100 | > 100 | > 100 | > 100 | > 100 |  |  |  |  |  |  |  |  |  | 
